*1 amine or outer side, *2 acyl side, *3 side chain or, on linkers, in order; H or OH if unused. Where a SMILES comes first, the peptide text is derived from it. Side-chain parts run from the residue outwards. [ ]: non-standard residue; d: D form. The star is where a group is joined. C20 diacid = O=C(O)CCCCCCCCCCCCCCCCCCC(=O)*; γGlu = O=C(O)[C@H](CCC(=O)[*:2])N[*:1]; AEEA = NCCOCCOCC(=O)O; Aib = CC(C)(N)C(=O)O

Results on one compound are retold here after patent US20240228572A1 (i2o Therapeutics, Inc., priority 2020, published 2024).

Data set [1] addresses T1, human GLP-1 receptor (GLP-1R) (Homo sapiens, UniProt P43220).
T1 construct: expressed in transfected cells
In words: cAMP accumulation assay, CHO-K1 cells stably expressing human GLP-1R. The class given is cell-based.

Data set [2] in a line: Metabolic stability in rat kidney brush border membranes (kBBM). The following applies: 1 mcM peptide, 50 mcg protein/mL, 37° C., pH 7.4, read-out: kBBM t½ (converted). In kind it is in vitro ADME. On the procedure:
Brush border membranes from rat and human kidney tissue were prepared via centrifugation and stored at −70° C. Thawed stocks of rat or human kBBM were diluted to the appropriate concentration in 25 mM HEPES buffer (pH 7.4) containing 1% casein and aliquoted into a 96-well plate. The kBBM solutions were pre-warmed for 10 minutes at 37° C. Reactions were initiated by the addition of test peptide (1 mcM final concentration) also dissolved in 25 mM HEPES buffer (pH 7.4) containing 1% casein. The final concentration of kBBM in each incubation was 50 mcg protein/mL. Reactions were maintained at 37° C. in a shaking water bath. At 0, 0.25, 0.5, 1.0, 2.0, and 4.0 h post-initiation, 30 mcL of the reaction mixture was removed and placed into a 96-well plate containing 120 mcL of ice-cold methanol containing 2.5% formic acid. Quenched samples were centrifuged at 2178×g for 10 min and then a portion of the supernatants were transferred to a clean 96-well plate and diluted 1:1 with water.

The nature of data set [3]: Subcutaneous bolus injection pharmacokinetics / bioavailability in rats. In kind it is in vivo. Particulars: rat, plasma; SC bolus 0.11 mg/kg, male Sprague-Dawley rats. On the procedure:
Peptides were dissolved in sterile saline and administered to non-fasted male Sprague-Dawley rats (n=3 per group) at a dose of 0.1 mg/kg via a single bolus injection into the subcutaneous space between the scapulae. Blood samples (approximately 250 μL) were collected for pharmacokinetic analysis via a jugular vein cannula at 0.083, 0.25, 0.5, 1, 2, 4, 8, 24, 48, 72, 96, and 120 hr post-dose into microtainer tubes containing K2EDTA as anticoagulant and 25 μL of a protease inhibitor cocktail. Plasma was prepared by centrifugation and stored at −80° C. until analysis.
A 70 μL aliquot of each plasma sample was placed into to a 96-well plate. To each well was added 210 μL of 0.1% TFA in 2:1 ethanol:acetonitrile containing an appropriate internal standard. Plates were vortex mixed for 10 min at 1300 rpm, and then centrifuged for 10 min at 500× g. Supernatants (210 μL) were placed into a clean 96-well plate and evaporated under a nitrogen stream at 45° C. Residues were reconstituted in 80 μL of 20% acetonitrile (aq) containing 0.1% formic acid.
All calibration standards were prepared in control rat plasma containing K2EDTA and protease inhibitor cocktail.
Samples and standards were analyzed by electrospray ionization (ESI) UPLC-MS/MS using a system consisting of a CTC HTS PAL auto-injector (Leap, Carrboro, NC), an Agilent Infinity 1290 system with column oven (Palo Alto, CA), a Valco switching valve (Houston, TX), and a Sciex TripleTOF® 5600 mass spectrometer (Framingham, MA). Samples were injected onto a 2.1×50 mm reverse phase C18 analytical column, typically a Waters CORTECS UPLC C18+, 1.6 μm (Waters Corporation, Milford, MA) or similar. […] Initial conditions consisted of 95% A and 5% B. The organic component was increased to 95% B over a period of 3-4 minutes, depending on the peptide. Typical flow rates were 550 μL/min. The column temperature was held constant at 45° C. Peptides were quantified by monitoring one or more product ions produced from a multiply charged parent ion.

In data set [4] the test system is cynomolgus monkey GCGR. In words: cAMP accumulation assay, CHO-K1 cells expressing cynomolgus monkey GCGR. Particulars: cyno glucagon receptor. In kind it is cell-based. An excerpt: In the presence of the non-specific cAMP/cGMP phosphodiesterase inhibitor, 3-isobutyl-1-methylxanthine (IBMX), accumulating cAMP can be measured in vitro using common detection methods. Thus, it is possible to estimate an in vitro potency (pEC50) for peptides activating each of these receptors using fit dose-response curves for cAMP accumulation.
A cDNA fragment encoding the full-length open reading frame of the cynomolgus monkey GLP-1R (Genebank accession #XM_028847603 was cloned into pcDNA3.1+ for expression in CHO-K1 cells. A cDNA fragment encoding the full-length open reading frame of the human GCGR (Genebank accession #NM_000160 was cloned into pcDNA3.1+ for expression in CHO-K1 cells. A cDNA fragment encoding the full-length open reading frame of the rat GCGR (Genebank accession #NM_12091 was cloned into pcDNA3.1+ for expression in CHO-K1 cells. A cDNA fragment encoding the full-length open reading frame of the cynomolgus monkey GCGR (Genebank accession #XM_005585255 was cloned into pcDNA3.1+ for expression in CHO-K1 cells. […]
Peptides were serially diluted 4-fold in assay buffer to final concentrations ranging from 1×10^−9 M to 9.5×10^−16 M. Two assay controls consisting of 50 mcM forskolin (cAMP system maximum) or assay buffer only (cAMP system minimum) were also prepared. […] Plates were read on an Envision fluorescent plate reader (PerkinElmer). […]

T1 sequence (P43220 24-463): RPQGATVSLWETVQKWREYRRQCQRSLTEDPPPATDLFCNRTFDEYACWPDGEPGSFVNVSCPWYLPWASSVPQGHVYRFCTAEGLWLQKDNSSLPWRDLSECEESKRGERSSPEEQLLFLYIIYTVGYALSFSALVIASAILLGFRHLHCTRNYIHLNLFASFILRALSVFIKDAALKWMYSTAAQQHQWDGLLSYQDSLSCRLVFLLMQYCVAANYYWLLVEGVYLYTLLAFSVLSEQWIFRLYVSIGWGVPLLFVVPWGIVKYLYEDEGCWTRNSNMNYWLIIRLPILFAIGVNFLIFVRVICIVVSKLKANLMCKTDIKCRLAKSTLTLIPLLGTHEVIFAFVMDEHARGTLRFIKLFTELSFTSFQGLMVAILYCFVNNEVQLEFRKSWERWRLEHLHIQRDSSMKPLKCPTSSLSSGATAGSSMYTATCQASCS

As to `CC(C)C[C@H](NC(=O)[C@H](Cc1ccc(O)cc1)NC(=O)[C@H](CCCCN)NC(=O)[C@H](CO)NC(=O)[C@H](Cc1ccc(O)cc1)NC(=O)[C@H](CC(=O)O)NC(=O)[C@H](CO)NC(=O)[C@@H](NC(=O)[C@H](Cc1ccccc1)NC(=O)[C@@H](NC(=O)CNC(=O)[C@H](Cc1c[nH]cn1)NC(=O)[C@H](CO)NC(=O)[C@@H](N)Cc1ccc(O)cc1)[C@@H](C)O)[C@@H](C)O)C(=O)N[C@@H](CC(=O)O)C(=O)NC(C)(C)C(=O)N[C@@H](CCCCN)C(=O)N[C@@H](Cc1ccc(O)cc1)C(=O)N[C@@H](C)C(=O)N[C@@H](CCC(N)=O)C(=O)N[C@@H](CCCCNC(=O)CC[C@H](NC(=O)CC[C@H](NC(=O)COCCOCCNC(=O)CCCCCCCCCCCCCCCCCCC(=O)O)C(=O)O)C(=O)O)C(=O)N[C@@H](Cc1ccccc1)C(=O)N[C@H](C(=O)NC(C)(C)C(=O)N[C@@H](Cc1c[nH]c2ccccc12)C(=O)N[C@@H](CC(C)C)C(=O)N[C@@H](CCC(=O)O)C(=O)N[C@@H](CC(=O)O)C(=O)N[C@@H](CCC(=O)O)C(=O)N1CCC[C@H]1C(=O)N[C@@H](CO)C(=O)N[C@@H](CO)C(=O)NCC(=O)N[C@@H](C)C(=O)N1CCC[C@H]1C(=O)N1CCC[C@H]1C(=O)N1CCC[C@H]1C(=O)N[C@@H](CO)C(=O)O)C(C)C` [Compound A6] (H-YSHGTFTSDYSKYLD[Aib]KYAQK([γGlu-γGlu-AEEA-C20 diacid])FV[Aib]WLEDEPSSGAPPPS-OH; N-terminus assumed), the EC50 in data set [1] was above 100 nM. The “Activity (as EC50 values) hGLP1R” value in data set [1] (human GLP-1 receptor, Table 11) was below 7. In addition, the half-life at 1 mcM in data set [2] was 396 min. For the same compound, in data set [3], the peak level (Cmax) was 462 ng/mL, the Tmax fell in the range of 8 to 24 h, the bioavailability came to 94.9% and the half-life is 948 min. The “Activity (as EC50 values) cGCGR” value in data set [4] is given as 9.77.
